We go through three molecules from paper PMC3179181 (Journal of medicinal chemistry, 2010).

pIC50: −log10 of the molar value. Entries after “also recorded” stand apart in the source; their conditions may differ.

The target of data set [1] is T1, PLD2 (Homo sapiens, UniProt O14939).
The target of another data set is T2, PLD1 (Homo sapiens, UniProt Q13393).
T2 sequence (Q13393 1-1074): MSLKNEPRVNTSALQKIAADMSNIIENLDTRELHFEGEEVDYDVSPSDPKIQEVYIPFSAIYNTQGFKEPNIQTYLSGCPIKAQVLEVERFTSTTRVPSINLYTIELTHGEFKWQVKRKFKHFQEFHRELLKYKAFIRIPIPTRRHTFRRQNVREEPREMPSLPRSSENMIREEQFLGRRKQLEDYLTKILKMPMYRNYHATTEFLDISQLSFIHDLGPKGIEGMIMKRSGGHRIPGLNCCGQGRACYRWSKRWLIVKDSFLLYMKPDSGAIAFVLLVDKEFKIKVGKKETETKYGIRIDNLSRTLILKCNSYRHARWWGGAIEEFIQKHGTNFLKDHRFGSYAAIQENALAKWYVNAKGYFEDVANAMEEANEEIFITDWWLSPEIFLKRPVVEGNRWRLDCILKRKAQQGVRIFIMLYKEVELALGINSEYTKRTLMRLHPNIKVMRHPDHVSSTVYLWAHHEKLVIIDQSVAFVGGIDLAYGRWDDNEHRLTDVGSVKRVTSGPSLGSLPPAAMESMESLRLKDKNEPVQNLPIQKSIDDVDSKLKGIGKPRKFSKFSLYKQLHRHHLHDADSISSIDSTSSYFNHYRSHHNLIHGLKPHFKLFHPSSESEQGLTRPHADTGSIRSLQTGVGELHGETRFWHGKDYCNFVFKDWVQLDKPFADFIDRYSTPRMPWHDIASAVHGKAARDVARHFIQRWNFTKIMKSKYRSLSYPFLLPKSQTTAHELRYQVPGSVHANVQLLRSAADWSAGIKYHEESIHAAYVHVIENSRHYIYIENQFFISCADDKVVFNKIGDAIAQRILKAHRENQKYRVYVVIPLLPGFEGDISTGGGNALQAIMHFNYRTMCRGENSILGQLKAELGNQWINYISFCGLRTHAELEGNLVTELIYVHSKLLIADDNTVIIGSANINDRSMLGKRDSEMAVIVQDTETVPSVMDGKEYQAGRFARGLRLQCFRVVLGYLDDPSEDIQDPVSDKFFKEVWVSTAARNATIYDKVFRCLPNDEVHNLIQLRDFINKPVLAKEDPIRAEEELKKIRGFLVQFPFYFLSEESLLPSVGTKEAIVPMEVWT
Briefly: cell-based.

Data set [2] concerns the target T1, PLD2. Briefly: cell-based.
Another data set deals with Caspase 3 and 7. Put plainly: Caspase 3/7 activity. The data set is classed as cell-based. As to conditions: 48 hours, 10 μM, versus vehicle; for Caspase 3 and 7 activity: serum free.
The conditions of data set [3]: rat.

T1 sequence (O14939 whole entry): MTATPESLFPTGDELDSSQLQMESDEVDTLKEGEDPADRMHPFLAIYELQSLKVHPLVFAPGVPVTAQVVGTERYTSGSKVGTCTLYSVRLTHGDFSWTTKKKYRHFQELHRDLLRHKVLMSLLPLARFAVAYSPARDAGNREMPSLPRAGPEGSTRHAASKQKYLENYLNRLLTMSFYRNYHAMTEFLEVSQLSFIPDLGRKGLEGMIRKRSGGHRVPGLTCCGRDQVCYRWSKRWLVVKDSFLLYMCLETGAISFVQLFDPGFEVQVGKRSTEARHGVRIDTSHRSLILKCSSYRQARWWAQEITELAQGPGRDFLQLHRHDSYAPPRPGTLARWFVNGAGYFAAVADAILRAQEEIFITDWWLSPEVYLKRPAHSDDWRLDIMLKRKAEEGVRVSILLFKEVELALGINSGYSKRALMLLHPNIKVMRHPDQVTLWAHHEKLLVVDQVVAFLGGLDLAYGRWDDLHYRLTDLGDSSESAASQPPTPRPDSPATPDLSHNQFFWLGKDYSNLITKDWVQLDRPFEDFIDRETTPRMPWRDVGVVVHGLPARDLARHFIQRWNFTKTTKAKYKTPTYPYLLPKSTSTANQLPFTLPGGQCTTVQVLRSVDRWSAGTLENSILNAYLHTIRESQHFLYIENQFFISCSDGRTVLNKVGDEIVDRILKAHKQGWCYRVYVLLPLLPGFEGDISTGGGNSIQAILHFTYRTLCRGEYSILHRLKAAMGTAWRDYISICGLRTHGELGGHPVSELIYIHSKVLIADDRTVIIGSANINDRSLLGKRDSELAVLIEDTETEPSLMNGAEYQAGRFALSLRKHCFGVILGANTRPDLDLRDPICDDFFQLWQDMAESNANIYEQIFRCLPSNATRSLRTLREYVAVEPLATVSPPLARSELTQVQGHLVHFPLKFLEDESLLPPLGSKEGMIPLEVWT

Regarding `C[C@@H](CN1CCC2(CC1)C(=O)NCN2c1ccc(F)c(F)c1)NC(=O)c1ccc2ccccc2c1.O=C(O)C(F)(F)F` [24a, (S)-N-(1-(1-(3,4-difluorophenyl)-4-oxo-1,3,8-triazaspiro[4.5]decan-8-yl)propan-2-yl)-2-naphthamide 2,2,2-trifluoroacetate], the “Fold PLD2 Selective” value at PLD2 [1] came out at 23 fold. For the same molecule, the negative logarithm of the IC50 (pIC50) against PLD1 was 5.55; against PLD2 [2], 6.92.
`O=C(NCCN1CCC2(CC1)C(=O)NCN2c1cccc(F)c1)c1ccc2ccccc2c1` [22a, N-(2-(1-(3-fluorophenyl)-4-oxo-1,3,8-triazaspiro[4.5]decan-8-yl)ethyl)-2-naphthamide]: the “Caspase 3 and 7 activity” value with Caspase 3 and 7 was “increased Caspase 3 & 7 activity”. The “plasma protein binding (% bound)” value in data set [3] was 97.9 % bound.
Regarding `C[C@@H](CN1CCC(n2c(=O)[nH]c3cc(Br)ccc32)CC1)NC(=O)[C@H]1C[C@@H]1c1ccccc1` [compound 14], the “increase in Caspase 3 and 7 activity” value with Caspase 3 and 7 (10% FBS) is given as “marginal increase; also recorded: fairly resistant to PLD inhibitor treatment”. The “Caspase 3 and 7 activity” value in the data set on Caspase 3 and 7 was “increased Caspase 3 & 7 activity”.
